Experimental data reported in the supplement of paper PMC10307832.

Experiments:
Experiment in all cases: relative viability (nuclei count vs DMSO), 5 days (fraction); higher = more cells survive
[1] = compound: CNC(=O)c1ccccc1Sc1ccc2c(/C=C/c3ccccn3)n[nH]c2c1 [Axitinib] + CCNC(=O)c1noc(-c2cc(C(C)C)c(O)cc2O)c1-c1ccc(CN2CCOCC2)cc1 [Luminespib] (partner 0.01 µM)
Method in brief: (§1)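 A single step with final 0.05% Triton X-100, 1% formaldehyde and 1 ug/ml Hoechst fixed the cells and stained nuclei 5 days after treatment. Lung cancer cell lines in 1536-well plates had been treated by pin tool the day after seeding with one drug alone or a fixed anchor-drug dose plus five library-drug doses (not always all listed) in √10 steps, and nuclei were counted on 4× images. Relative viability is the ratio of nuclei in treated wells to nuclei in vehicle wells, taken as the median of duplicate plates.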

[2] = compound: Nc1nc(Nc2ccc3c(c2)CC[C@@H](N2CCCC2)CC3)nn1-c1cc2c(nn1)-c1ccccc1CCC2 [Bemcentinib] + CCNC(=O)c1noc(-c2cc(C(C)C)c(O)cc2O)c1-c1ccc(CN2CCOCC2)cc1 [Luminespib] (partner 0.01 µM)
Method in brief: as §1

[3] = compound: Nc1nc(Nc2ccc3c(c2)CC[C@@H](N2CCCC2)CC3)nn1-c1cc2c(nn1)-c1ccccc1CCC2 [Bemcentinib] + N=C(N)NC(=N)NCCc1ccccc1 [Phenformin] (partner 250 µM)
Method in brief: as §1

[4] = compound: Nc1nc(Nc2ccc3c(c2)CC[C@@H](N2CCCC2)CC3)nn1-c1cc2c(nn1)-c1ccccc1CCC2 [Bemcentinib] + C[C@@H](Oc1cc(-c2cnn(C3CCNCC3)c2)cnc1N)c1c(Cl)ccc(F)c1Cl [Crizotinib] (partner 1 µM)
Method in brief: as §1

Cell Line | relative viability ([1]; first compound 0.005 µM) | relative viability ([1]; first compound 0.01581 µM) | relative viability ([1]; first compound 0.05 µM) | relative viability ([1]; first compound 0.1581 µM) | relative viability ([1]; first compound 0.5 µM) | relative viability ([2]; first compound 0.04 µM) | relative viability ([2]; first compound 0.1265 µM) | relative viability ([2]; first compound 0.4 µM) | relative viability ([2]; first compound 1.265 µM) | relative viability ([2]; first compound 4 µM) | relative viability ([3]; first compound 0.04 µM) | relative viability ([3]; first compound 0.1265 µM) | relative viability ([3]; first compound 0.4 µM) | relative viability ([3]; first compound 1.265 µM) | relative viability ([3]; first compound 4 µM) | relative viability ([4]; first compound 0.04 µM) | relative viability ([4]; first compound 0.1265 µM) | relative viability ([4]; first compound 0.4 µM) | relative viability ([4]; first compound 1.265 µM) | relative viability ([4]; first compound 4 µM)
LOU-NH91 | 0.325 | 0.377 | 0.379 | 0.349 | 0.331 | 0.293 | 0.414 | 0.354 | 0.303 | 0.324 | 0.637 | 0.663 | 0.73 | 0.748 | 0.673 | 0.717 | 0.726 | 0.732 | 0.753 | 0.756
LK-2 | 0.185 | 0.146 | 0.19 | 0.185 | 0.18 | 0.218 | 0.167 | 0.151 | 0.172 | 0.182 | 0.461 | 0.483 | 0.443 | 0.463 | 0.828 | 0.217 | 0.186 | 0.252 | 0.224 | 0.234
EPLC-272H | 0.332 | 0.376 | 0.338 | 0.251 | 0.314 | 0.25 | 0.658 | 0.279 | 0.353 | 0.318 | 0.372 | 0.273 | 0.27 | 0.296 | 0.352 |  | 0.96 | 1.05 | 0.86 | 1.01
NCI-H441 | 0.305 | 0.325 | 0.313 | 0.456 | 0.576 | 0.354 | 0.485 | 0.303 | 0.469 | 0.321 | 0.831 | 0.919 | 1.04 | 1.04 | 0.948 | 0.66 | 0.704 | 0.757 | 0.665 | 0.779
NCI-H23 | 0.21 |  | 0.233 | 0.231 | 0.219 | 0.197 | 0.233 | 0.192 | 0.224 | 0.214 | 0.813 | 0.822 | 0.803 | 0.659 | 0.755 | 0.493 | 0.608 | 0.522 | 0.613 | 0.482
NCI-H647 | 0.292 | 0.167 | 0.168 | 0.227 | 0.285 | 0.142 | 0.157 | 0.108 | 0.143 | 0.136 | 0.631 | 0.488 | 0.674 | 0.62 | 0.544 | 1.13 | 1.39 | 1.1 | 1.12 | 1.21
LXF-289 | 0.69 | 0.721 | 0.659 | 0.573 | 0.781 | 0.74 | 0.78 | 0.703 | 0.653 | 0.665 | 0.523 | 0.533 | 0.534 | 0.532 | 0.54 | 0.88 | 0.833 | 0.817 | 0.791 | 0.877
NCI-H596 | 1.12 | 1.09 | 1 | 0.93 | 1.04 | 0.893 | 1.12 | 1.23 | 1.27 | 1.09 | 0.698 | 0.733 | 0.783 | 0.713 | 0.772 | 0.969 | 1.01 | 1.08 | 1.1 | 1.05
